In patent publication US20250250227A1, “AMINO LIPID COMPOUND, PREPARATION METHOD THEREFOR, COMPOSITION THEREOF AND USE THEREOF” (SHENZHEN SHENXIN BIOTECHNOLOGY CO., LTD., priority 2022, published 2025):

Columns and labels:
[1] = Preparation and characterisation of mRNA-encapsulating lipid nanoparticle (encapsulation efficiency, particle size); type: physicochemical; conditions: LNP encapsulating Fluc mRNA; Lipid:DSPC:CHO-HP:M-DMG-2000 48:10:40.5:1.5
Summary of the method: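 Fluc mRNA in sodium acetate buffer mixed with ethanolic amino lipid:DSPC:CHO-HP:M-DMG-2000 (48:10:40.5:1.5 molar) by microfluidics, mRNA:lipid mass ratio 1:10, then dialysed 2 h against Tris-8% sucrose and 0.22 μm filtered. Final mRNA 0.2 g/L; particle size and encapsulation efficiency measured.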

Female BALB/c mice [2] = assay: Performance evaluation of in vivo delivery of Fluc mRNA lipid nanoparticle (IVIS, body and organs); conditions: Fluc mRNA LNP; for Liver (fluorescence expression intensity) / Spleen (fluorescence expression intensity): 75 μL IV; for Liver (fluorescence expression intensity) / Spleen (fluorescence expression intensity) / Total flux (fluorescence expression intensity) / (Spleen/Total Flux) * 100%: 6 hours after injection; for Liver (fluorescence expression intensity) / Spleen (fluorescence expression intensity) / Total flux (fluorescence expression intensity): IVIS; for Total flux (fluorescence expression intensity): 75 μL tail vein injection (IV); for (Spleen/Total Flux) * 100% / Multiple of spleen delivery/total delivery to amino lipid compound 118: IV; for Multiple of spleen delivery/total delivery to amino lipid compound 118: relative to amino lipid compound 118
Summary of the method: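 Female BALB/c mice, 6-8 weeks, received 75 μL Fluc mRNA-LNP by tail-vein injection, 3 mice per formulation. At 6 h, 200 μL D-luciferin was injected, mice were anesthetized with isoflurane, and IVIS bioluminescence was imaged in body and organs.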

Female BALB/c mice [3] = assay: IFN-γ Elispot cellular immunity test, spleen lymphocytes of mice immunized with IN002.5.1 mRNA LNP; type: in vivo; conditions: 50 μL IM, spleen on 7th day after immunization, FIG. 2-4
Method: An IN002.5.1 mRNA-encapsulating lipid nanoparticle formulation was prepared according to the method as described in Experimental Example 1, with replacing the luciferase mRNA (Fluc mRNA) with IN002.5.1 mRNA, with a concentration of IN002.5.1 mRNA of 0.2 g/L, a mass ratio of IN002.5.1 mRNA to Lipid of 1:10, a particle size of 80-130 nm, and an encapsulation efficiency of 90% or higher.
The sequence of IN002.5.1 mRNA is one obtained by replacing all uracil (u) in SEQ ID NO. 1 with N1-methylpseudouridine. Of note is that the t (thymine) in the RNA sequence, SEQ ID NO. 1, in the Sequence Listing is actually u (uracil), according to the WIPO Standard ST. 26 for nucleotide or amino acid sequence listing.
(§1) Animal preparation: Female BALB/c mice of 6-8 weeks old were selected and raised in an SPF grade breeding room. Animal testing was conducted in strict accordance with the guidelines of national health institutions and animal ethics requirements.
Immunization of mice: Prior to injection of the test LNP formulations, the LNP formulations were gently and repeatedly inverted to thoroughly mix the formulation samples. A corresponding amount of the formulation samples were aspirated with a 1 ml insulin syringe, and the LNP formulations were injected by intramuscular injection (IM) […], with 8 mice per formulation. Each mouse was injected with 50 μL of the IN002.5.1 mRNA encapsulating lipid nanoparticle formulation.
Spleen acquisition: On the 7th day after immunization, 3 to 4 mice from each LNP immunization group were selected and euthanized, and their spleens were acquired in a super clean bench.
Isolation of lymphocytes: The spleens of mice were taken out in a super clean bench. 7 mL of mouse lymphocyte separation solution was added to a 6-well cell culture plate. Mouse spleen cells were ground with a syringe piston, and the suspension of the spleen cells was filtered through a cell screen and immediately transferred to a 15 mL centrifuge tube. […] RPMI 1640 medium was slowly added with keeping the liquid interface distinct. After centrifugation at 800 g with a horizontal rotor at room temperature for 30 minutes, a clear stratification can be visible. The lymphocyte layer was aspirated, then added with 10 mL RPMI 1640 medium, and inverted for washing. The cells were collected by centrifugation at 250 g for 10 min at room temperature, and the red blood cells were lysed. After completing lysis of red blood cells, the supernatant was poured, and the cells were resuspended in culture medium and counted.
Addition of stimulant and culture of lymphocyte: RPMI-1640 medium containing 10% fetal bovine serum was used to activate the pre-coated plate. After standing at room temperature for at least 30 min, the medium was removed, and a cell suspension at adjusted concentration was added ([…]). The medium used to resuspend the cells was used as a background negative control. 10 μL positive stimulant working solution (PMA+Ionomycin (dissolved in DPBS) was added to a positive control well; […] medium used to resuspend the cells was added to a negative control well; 10 µL/well of a peptide library diluted with RPMI 1640 was added to experimental wells. After all samples and the stimulant were added, the plate was covered, incubated in an incubator with 5% CO2 at 37° C. for 16-24 h.
Elispot detection after culture: The cells and the culture medium in the wells were dumped, and the wells were lysed with 200 μL/well of ice-cold deionized water at 4° C. for 10 min. The liquid in the wells were shaken out, and the wells were washed five times with PBS buffer. The wells were incubated with 100 μL/well of 1 μg/ml detection antibody for 2 h at room temperature; and after washing the plate 5 times with PBS, the wells were incubated with 100 μL/well of 1000-fold diluted enzyme labeled avidin (Streptavidin-HRP) for 1 h at room temperature. […]

Female BALB/c mice [4] = assay: Humoral immunity test for total binding IgG antibody (ELISA, SARS-COV-2 antigen protein) in serum of immunized mice; type: in vivo; conditions: IN002.5.1 mRNA LNP, 50 μL IM, serum on 14th day after immunization; FIG. 5-6
Female BALB/c mice [5] = assay: Performance evaluation of delivery to lymph nodes of Fluc mRNA lipid nanoparticle (IVIS); type: in vivo; conditions: Fluc mRNA LNP; for Expression intensity (lymph nodes): 75 μL IV, 6 hours after injection, IVIS
Method: as §1
In vivo Delivery: prior to injection of the test LNP formulations, the LNP formulations were gently and repeatedly inverted to thoroughly mix the formulation samples. A corresponding amount of the formulation samples were aspirated with a 1 ml insulin syringe, and the LNP formulations were injected by tail vein injection (IV), with 3 mice per formulation. Each mouse was injected with 75 μL the luciferase mRNA (Fluc mRNA)-encapsulating lipid nanoparticle formulation prepared in Experimental Example 1.
6 hours after injection of LNP formulations, mice were injected with 200 μL D-Luciferin luciferase developing substrate (Catalog No. 122799; Manufacturer: Perkin Elmer). After the substrate was injected, the mice were anesthetized with isoflurane inhalation, and the injection time of luciferase developing substrate was recorded.
The intensity of fluorescence expression induced by the lipid nanoparticle encapsulating luciferase mRNA (Fluc mRNA) with a representative amino lipid compound is shown in Table 6, with SM-102 as a control.

Female BALB/c mice [6] = assay: In vivo safety of hEPO mRNA lipid nanoparticle: serum alanine aminotransferase (ALT) enzyme activity; conditions: hEPO mRNA LNP, 300 μL IV, serum 12 h after injection; FIG. 1
Method: A human erythropoietin mRNA (hEPO mRNA)-encapsulating lipid nanoparticle formulation was prepared according to the method as described in Experimental Example 1, with replacing the luciferase mRNA (Fluc mRNA) with human erythropoietin mRNA (hEPO mRNA), with a concentration of hEPO mRNA of 0.2 g/L, a mass ratio of hEPO mRNA to Lipid of 1:10, a particle size of 90-130 nm, and an encapsulation efficiency of above 90% or higher.
as §1
In vivo Delivery: Prior to injection of the test LNP formulations, the LNP formulations were gently and repeatedly inverted to thoroughly mix the formulation samples. A corresponding amount of the formulation samples were aspirated with a 1 ml insulin syringe, and the LNP formulations were injected by tail vein injection (IV), with 5 mice per formulation. Each mouse was injected with 300 μL of the human erythropoietin mRNA (hEPO mRNA)-encapsulating lipid nanoparticle formulation.
Serum acquisition: Blood samples of mice were collected 12 h after injection, placed in tubes without anticoagulants, and naturally coagulated at room temperature for 30-60 min, and then centrifuged at a speed of 3500 rpm for 10 min to obtain the supernatant, which was the serum.
The detection of alanine transaminase was carried out according to instructions of the kit (Nanjing Jiancheng Bioengineering Institute, Catalog. No. C009-2-1), and a standard curve was made using the standard provided in the kit. D-PBS was used in the experiment, which was purchased from Sangon Biotech (Shanghai) Co., Ltd., Catalog No. E607009-0600.
The method of detection of enzyme activity of alanine aminotransferase (ALT) in serum of the mice is as follows:
• (1) Enzymatic reaction: 0, 2, 4, 6, 8 and 10 μL of […] sodium pyruvate standard solution were sequentially added to 5 μL of 0.1 mol/L phosphate buffer, and the volume was supplemented to 25 μL with a matrix solution, and repeatedly aspirating and spitting with a pipette for mixing well; • (2) Addition reaction: 20 μL 2,4-dinitrophenylhydrazine solution was added to all reaction wells in (1), mixed by aspirating and spitting, and then placed in an incubator at 37° C. to react for 20 min; • (3) Developing: 200 μL of 0.4 mol/L NaOH solution was added to all reaction wells in (2) to stop the reaction, mixed by aspirating and spitting, and incubated at room temperature for 15 min. The OD value of each well was measured at 510 nm in a microplate reader; and • (4) Data processing of standard curve: The corresponding absolute OD value for each well was obtained by subtracting the OD value for 0 μL well from the measured OD value for each well, the corresponding ALT Karmen units being 0, 28, 57, 97, 150 and 200 U/L, respectively. The standard curve was obtain by taking the absolute OD value as the abscissa and the corresponding Karmen unit as the ordinate.
• (1) Reagent preparation: an ALT matrix solution was placed in an incubator at 37° C. for preheating; • (2) Enzymatic reaction: 5 μL diluted serum was aspirated and added to a 96-well plate, then 20 μL matrix solution was added to the corresponding sample well and mixed by repeatedly aspirating and spitting to avoid bubbling, and then placed in an incubator at 37° C. for 30 min; • (3) Addition reaction: 20 μL 2,4-dinitrophenylhydrazine was added to all reaction wells in (2), mixed by aspirating and spitting, and then reacted in an incubator at 37° C. for 20 min; • (4) Developing: 200 μL of 0.4 mol/L NaOH solution was added to all reaction wells in (3) to stop the reaction, mixed by aspirating and spitting, and then incubated at room temperature for 15 min. […]

| SMILES | Encapsulation efficiency [1] [%] | Liver (fluorescence expression intensity) (Female BALB/c mice [2]) | Spleen (fluorescence expression intensity) (Female BALB/c mice [2]) | Total flux (fluorescence expression intensity) (Female BALB/c mice [2]) | (Spleen/Total Flux) * 100% (Female BALB/c mice [2]) [%] | Multiple of spleen delivery/total delivery to amino lipid compound 118 (Female BALB/c mice [2]) | Cellular immunity effect (IFN-γ Elispot) compared to ALC0315 (Female BALB/c mice [3]) | Humoral immunity effect (IgG titer) compared to ALC0315 (Female BALB/c mice [4]) | Expression intensity (lymph nodes) (Female BALB/c mice [5]) | Delivery effect on lymph nodes compared to SM102 (Female BALB/c mice [5]; IV, statement on Table 6) | ALT enzyme activity (Karmen unit) compared to ALC0315 and SM-102 (Female BALB/c mice [6]) |
| --- | --- | --- | --- | --- | --- | --- | --- | --- | --- | --- | --- |
| CCCCCCC(CCCCCC)OC(=O)CCCCCCCCC(CCCCCCCCC(=O)OC(CCCCCC)CCCCCC)OC(=O)N(CCCN(C)C)CCC(=O)OCCCCC [Compound 265] | 94.59 | 7.57E+07 | 1.91E+06 | 3.93E+08 | 0.49 | 1.43 | better cellular immunity effect | better humoral immunity effect | – | – | – |
| CCCCCCC(CCCCCC)OC(=O)CCCCCCCCC(CCCCCCCCC(=O)OC(CCCCCC)CCCCCC)OC(=O)N(CCCCCC(=O)OCC)CCCN(C)C [Compound 250] | – | – | – | – | – | – | – | – | 1.77E+06 | better delivery effect on lymph nodes | – |
| CCCCCCC(CCCCCC)OC(=O)CCCCCCCCC(CCCCCCCCC(=O)OC(CCCCCC)CCCCCC)OC(=O)N(CCCN(C)C)CCC(=O)OCCC [Compound 263] | – | – | – | – | – | – | better cellular immunity effect | better humoral immunity effect | – | – | significantly lower ALT enzyme activity |
| CCCCCCCCCCCOC(=O)CCCCCN(CCO)CCCCCCCC(=O)OC(CCCCCCCC)CCCCCCCC [SM-102, reference compound] | – | – | – | – | – | – | – | – | 4.94E+05 | – | – |
| CCCCCCCCOC(=O)CN(CCCN(C)C)C(=O)OC(CCCCCCCCC(=O)OC(CCCCCC)CCCCCC)CCCCCCCCC(=O)OC(CCCCCC)CCCCCC [Compound 274] | 93.06 | 7.08E+07 | 2.60E+06 | 3.25E+08 | 0.80 | 2.35 | better cellular immunity effect | better humoral immunity effect | – | – | – |
| CCCCCCC(CCCCCC)OC(=O)CCCCCCCCC(CCCCCCCCC(=O)OC(CCCCCC)CCCCCC)OC(=O)N(CCCN(C)C)CC(=O)OCCCCC [Compound 271] | 93.59 | 7.57E+07 | 4.76E+06 | 2.68E+08 | 1.78 | 5.22 | better cellular immunity effect | better humoral immunity effect | – | – | – |
| CCCCCCOC(=O)CCN(CCCN(C)C)C(=O)OC(CCCCCCCCC(=O)OC(CCCCCC)CCCCCC)CCCCCCCCC(=O)OC(CCCCCC)CCCCCC [Compound 266] | 94.26 | 8.09E+07 | 1.60E+06 | 2.67E+08 | 0.60 | 1.76 | – | better humoral immunity effect | – | – | significantly lower ALT enzyme activity |
